Earlier results, collected in patent EP1219295A1, “Controlled release formulation of valproate” (Abbott Laboratories, priority 2000, dated 2002).
Where two headings read alike, the source gives them in different places.

Experiments:
[1] = in vivo

| SMILES | patients affected by GI irritation [1] | half life (in adults) | half life (in children) |
| --- | --- | --- | --- |
| CCCC(CCC)C(=O)O [valproate] | up to one third |  |  |
| CCCC(CCC)C(=O)O [valproic acid, 2-Propylpentanoic acid] |  | six and seventeen | four and fourteen |
